Columns and labels:
[1] = tested on: urinary glucose excretion; assay: Assay for the facilitatory effect on urinary glucose excretion; type: in vivo; conditions: SD rats, 1 mg/kg intravenous, oral glucose 2 g/kg; in 24 hours per 200 g of body weight
Protocol: Assay for the Facilitatory Effect on Urinary Glucose Excretion
As experimental animal, overnight fasted SD rats (SLC., male, 7 weeks of age, 180–240 g) were used. Ten mg of test compound was suspended or dissolved in 300 μL of ethanol and then dissolved by adding of 1.2 mL of polyethylene glycol 400 and 1.5 mL of saline, and then 3.3 mg/mL solution was prepared. Three hundred μL of this solution was dissolved with 2.7 mL of the solution for dilution (saline:polyethylene glycol 400:ethanol=5:4:1) and then 0.33 mg/mL solution was prepared. After the body weights of rats were measured, the solution of test compound was intravenously injected to the tail vein at the dose of 3 mL/kg (1 mg/kg). For control, just only the solution (saline:polyethylene glycol 400:ethanol=5:4:1) was intravenously injected to the tail vein at the dose of 3 mL/kg. Immediately after intravenous injection to the tail vein, 200 g/L of glucose solution was orally administered to the rats at the dose of 10 mL/kg (2 g/kg). The intravenous injection to the tail vein was performed with 26 G injection needle and 1 mL syringe. The oral administration was performed with gastric tube for rat and 2.5 mL syringe. The head count in one group was 2 or 3. Collection of urine was performed in metabolic cage after the oral administration of glucose was finished. The sampling time for collection of urine was 24 hours after the oral administration of glucose. After the collection of urine was finished, the urine volume was recorded and the urinary glucose concentration was measured. The glucose concentration was measured with a kit for laboratory test: Glucose B-Test WAKO (Wako Pure Chemical Industries, Ltd.). The amount of urinary glucose excretion in 24 hours per 200 g of body weight was calculated from urine volume, urinary glucose concentration and body weight.

human SGLT2 = target: T1, human SGLT2 (Homo sapiens, UniProt P31639, I433V); assay: Assay for inhibitory effect on human SGLT2 activity (uptake of methyl-α-D-glucopyranoside); type: cell-based; conditions: COS-7 cells transiently expressing human SGLT2; uptake of methyl-α-D-(U-14C)glucopyranoside, 37° C., 2 hours
T1 construct: expressed in transfected cells; host or cells: COS-7 cells (RIKEN CELL BANK RCB0539), transient, electroporation
T1 sequence (P31639 1-672 I433V): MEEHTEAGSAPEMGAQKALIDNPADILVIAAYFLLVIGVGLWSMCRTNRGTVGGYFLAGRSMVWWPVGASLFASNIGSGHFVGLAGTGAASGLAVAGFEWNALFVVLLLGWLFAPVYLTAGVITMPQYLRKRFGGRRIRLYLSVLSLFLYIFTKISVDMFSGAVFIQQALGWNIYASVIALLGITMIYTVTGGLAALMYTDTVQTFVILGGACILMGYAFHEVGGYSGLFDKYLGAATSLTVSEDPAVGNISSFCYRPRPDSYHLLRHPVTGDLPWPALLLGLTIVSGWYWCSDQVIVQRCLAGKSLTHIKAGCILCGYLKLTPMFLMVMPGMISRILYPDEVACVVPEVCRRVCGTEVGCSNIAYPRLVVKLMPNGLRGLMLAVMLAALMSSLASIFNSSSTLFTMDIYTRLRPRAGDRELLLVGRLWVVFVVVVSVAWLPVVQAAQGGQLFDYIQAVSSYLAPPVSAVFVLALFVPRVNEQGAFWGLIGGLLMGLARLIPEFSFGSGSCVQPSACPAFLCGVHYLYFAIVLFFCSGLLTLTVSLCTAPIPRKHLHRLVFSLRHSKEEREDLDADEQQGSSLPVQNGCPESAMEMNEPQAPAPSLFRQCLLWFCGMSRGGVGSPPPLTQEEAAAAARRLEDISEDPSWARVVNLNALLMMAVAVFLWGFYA
Protocol: Assay for Inhibitory Effect on Human SGLT2 Activity
Preparation of the cDNA library for PCR amplification was performed by reverse transcription of a total RNA deprived from human kidney (Ori gene) with oligo dT as the primer, using […] Preamplification System (Gibco-BRL: LIFE TECHNOLOGIES). […] The amplified DNA fragment was ligated into pCR-Blunt (Invitrogen), a vector for cloning, according to standard method of the kit. […] The amplified DNA fragment was digested with restriction enzymes, Xho I and Hind III, and then purified with Wizard Purification System (Promega).
KL29, the plasmid coding human SGLT2, was transfected into COS-7 cells (RIKEN CELL BANK RCB0539) by electroporation. Electroporation was performed with GENE PULSER II (Bio-Rad Laboratories) under the condition: 0.290 kV, 975 μF, 2×10^6 cells of COS-7 cell and 20 μg of KL29 in 500 μL of OPTI-MEM I medium (Gibco-BRL: LIFE TECHNOLOGIES) in the 0.4 cm type cuvette. After the gene transfer, the cells were harvested by centrifugation and resuspended with OPTI-MEM I medium (1 mL/cuvette). To each well in 96-wells plate, 125 μL of this cell suspension was added.

ICR mice = assay: Acute toxicity test; type: in vivo; conditions: male ICR mice, 2000 mg/kg subcutaneous, 5 animals
Protocol: Five weeks old male ICR mice (CLEA JAPAN, INC. 29–34 g, 5 animals in each group) were fasted for 4 hours, and 666 mg/mL of a suspension which was prepared by adding saline:polyethylene glycol 400:ethanol (5:4:1) to 2-[4-(2-hydroxyethyl)benzyl]phenyl β-D-glucopyranoside (the compound described in Example 10) was subcutaneously administered at the dose of 3 mL/kg (2000 mg/kg).

Structure (SMILES)	IC50 (human SGLT2) [nM]	Amount of urinary glucose excretion [1] [mg]	Death until 24 hours after the administration (ICR mice)
COc1ccc(Cc2ccccc2O[C@@H]2O[C@H](CO)[C@@H](O)[C@H](O)[C@H]2O)cc1 [Example 1, 2-(4-Methoxybenzyl)phenyl β-D-glucopyranoside]		27.4	
CCCOc1ccc(Cc2ccc(CO)cc2O[C@@H]2O[C@H](CO)[C@@H](O)[C@H](O)[C@H]2O)cc1 [Example 7, 5-Hydroxymethyl-2-(4-propoxybenzyl)phenyl β-D-glucopyranoside]	140	109.1	
OCCc1ccc(Cc2ccccc2O[C@@H]2O[C@H](CO)[C@@H](O)[C@H](O)[C@H]2O)cc1 [Example 10, 2-[4-(2-Hydroxyethyl)benzyl]phenyl β-D-glucopyranoside]	210	69.5	No death was observed

Further lines, with some results ahead:

IC50 (human SGLT2) [nM]	Structure (SMILES)	Amount of urinary glucose excretion [1] [mg]	Death until 24 hours after the administration (ICR mice)
8.1	CCc1ccc(Cc2ccc(CO)cc2O[C@@H]2O[C@H](CO)[C@@H](O)[C@H](O)[C@H]2O)cc1 [Example 8, 2-(4-Ethylbenzyl)-5-hydroxymethylphenyl β-D-glucopyranoside]	238.9	
27	OCCc1ccc(Cc2ccc(CO)cc2O[C@@H]2O[C@H](CO)[C@@H](O)[C@H](O)[C@H]2O)cc1 [Example 9, 2-[4-(2-Hydroxyethyl)benzyl]-5-hydroxymethylphenyl β-D-glucopyranoside]		
75	OCCCc1ccc(Cc2ccccc2O[C@@H]2O[C@H](CO)[C@@H](O)[C@H](O)[C@H]2O)cc1 [Example 11, 2-[4-(3-Hydroxypropyl)benzyl]phenyl β-D-glucopyranoside]		
